From paper PMC9321952 (Molecular Ecology, 2022)

Columns and labels:
Assay in all cases: Fluo-4 calcium fluorescence assay, HEK293 cells
Settings in all cases: agonist; co-expressed with ItypOrco; room temperature
HabiOR4^HsCO = format: cell-based, Hylobius abietis
HabiOR3 = format: cell-based, Hylobius abietis
DponOR8^HsCO = format: cell-based, Dendroctonus ponderosae
ItypOR6 = format: cell-based, Ips typographus

| SMILES | EC50 (HabiOR4^HsCO) [µM] | EC50 (HabiOR3) [µM] | EC50 (DponOR8^HsCO) [µM] | EC50 (ItypOR6) [µM] |
| --- | --- | --- | --- | --- |
| CCCCCCO [1-hexanol] | 2.85 |  |  |  |
| OCCc1ccccc1 [2-phenylethanol] |  | 8.54 | 5.12 | 3.45 |
| CCC/C=C/CO [E2-hexenol] | 3.88 |  |  |  |
| CCC/C=C\CO [Z2-hexenol] | 7.34 |  |  |  |
| CC/C=C\CCO [Z3-hexenol] | 7.99 |  |  |  |
